The record followed here is patent publication US20220096450A1, “Compounds and Methods for Treating or Preventing Heart Failure” (DREXEL UNIVERSITY, priority 2019, published 2022).

The assay deals with SQOR (Homo sapiens, UniProt Q9Y6N5). The assay can be described thus: DCIP endpoint assay of SQOR activity. The class given is biochemical. Here is the method: The assay is based on the ability of reduced CoQ1, which is produced in the SQOR reaction, to nonenzymically reduce 2,6-dichloroindiphenol (DCIP) (Δεox-red=20 mM−1 cm−1 at 600 nm). Reaction mixtures containing SQOR, substrates (H2S, sulfite, CoQ1) and various concentrations of an inhibitor are incubated in 96-well plates for 60 s. The reactions are quenched by addition of formaldehyde and N-ethylmaleimide to denature SQOR and consume unreacted H2S, respectively, and are then incubated for 10 min prior to addition of DCIP. The absorbance at 600 nm is read 30 s after DCIP addition by using a BioTek Synergy 2 plate reader.

Setting [1] is: Table 1, SAR of Set A/A′ and Set B, read-out: IC50.

Read-outs that look alike come from different tables or passages of the source.

Sequence of SQOR (Q9Y6N5 whole entry): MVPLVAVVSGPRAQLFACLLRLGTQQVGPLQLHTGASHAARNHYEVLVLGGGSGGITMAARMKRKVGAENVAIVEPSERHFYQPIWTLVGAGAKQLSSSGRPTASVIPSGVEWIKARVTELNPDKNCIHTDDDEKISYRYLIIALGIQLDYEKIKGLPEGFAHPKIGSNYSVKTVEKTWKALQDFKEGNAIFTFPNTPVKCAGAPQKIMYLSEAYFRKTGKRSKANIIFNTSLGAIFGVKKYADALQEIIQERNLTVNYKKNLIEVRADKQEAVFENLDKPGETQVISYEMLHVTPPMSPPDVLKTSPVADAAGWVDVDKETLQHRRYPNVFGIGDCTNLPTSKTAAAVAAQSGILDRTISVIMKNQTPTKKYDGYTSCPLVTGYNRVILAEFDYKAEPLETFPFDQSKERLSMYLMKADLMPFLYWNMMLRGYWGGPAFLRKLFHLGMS

As usually defined, the IC50 is the midpoint of a concentration-inhibition curve. In the case of `Cc1cccnc1-c1cc(-c2ccc(F)cc2)c(C#N)c(OCCN2CCOCC2)n1` [2-(2-Morpholinoethoxy)-4-(4-fluorophenyl)-6-(3-methylpyridin-2-yl)pyridine-3-carbonitrile], the IC50 (Table 3, read-out: IC50) stood at 270 nM.
For `Cc1cccnc1-c1cc(-c2ccc(F)cc2)c(C#N)c(OCCCN(C)C)n1` [2-(3-(Dimethylamino)propoxy)-4-(4-fluorophenyl)-6-(3-methylpyridin-2-yl)pyridine-3-carbonitrile], the IC50 (Table 3, read-out: IC50) is 2700 nM.
Same read-out and setting: as for `CN(C)CCCOc1nc(-c2ccccn2)cc(-c2ccc(F)cc2)c1C#N` [2-(3-(Dimethylamino)propoxy)-4-(4-fluorophenyl)-6-(pyridin-2-yl)pyridine-3-carbonitrile], the figure is 2200 nM; as for `Cc1cccnc1-c1cc(-c2ccc(F)cc2)c(C#N)c(OCc2ccccn2)n1` [2-((Pyridin-2-yl)methoxy)-4-(4-fluorophenyl)-6-(3-methylpyridin-2-yl)pyridine-3-carbonitrile], 32 nM.
The same measure, in the same setting: as for `Cc1cccnc1-c1cc(-c2ccc(F)cc2)c(C#N)c(OCc2cccnc2)n1` [2-((Pyridin-3-yl)methoxy)-4-(4-fluorophenyl)-6-(3-methylpyridin-2-yl)pyridine-3-carbonitrile], the figure is 40 nM; as for `Cc1cccnc1-c1cc(-c2ccc(F)cc2)c(C#N)c(OCc2ccncc2)n1` [2-((Pyridin-4-yl)methoxy)-4-(4-fluorophenyl)-6-(3-methylpyridin-2-yl)pyridine-3-carbonitrile], 120 nM; as for `N#Cc1c(-c2ccc(F)cc2)cc(-c2ccccn2)nc1OC[C@H]1CCC(=O)N1` [2-((R)-5-(Methoxy)pyrrolidin-2-one)-4-(4-fluorophenyl)-6-(pyridin-2-yl)pyridine-3-carbonitrile], 2700 nM.
Take `N#Cc1c(-c2ccc(F)cc2)cc(-c2ccccn2)nc1OC[C@@H]1CCC(=O)N1` [2-((S)-5-(Methoxy)pyrrolidin-2-one)-4-(4-fluorophenyl)-6-(pyridin-2-yl)pyridine-3-carbonitrile]: the IC50 (Table 3, read-out: IC50) amounted to 39000 nM.
The same measure, in the same setting: as for `C=CCOc1nc(-c2ccccn2)cc(-c2ccc(F)cc2)c1C#N` [2-(Allyloxy)-4-(4-fluorophenyl)-6-(pyridin-2-yl)pyridine-3-carbonitrile], the figure is 7.2 nM; as for `N#CCOc1nc(-c2ccccn2)cc(-c2ccc(F)cc2)c1C#N` [2-(Cyanomethoxy)-4-(4-fluorophenyl)-6-(pyridin-2-yl)pyridine-3-carbonitrile], 25 nM.
Consider `COc1nc(-c2ccccc2)cc(-c2ccccc2)c1C` [2-Methoxy-3-methyl-4,6-diphenylpyridine], for which the IC50 (Table 3, read-out: IC50) worked out at 440 nM.
On the same count and under the same terms, as for `COc1nc(-c2ccccc2)cc(-c2cccc([N+](=O)[O-])c2)c1C#N` [2-Methoxy-4-(3-nitrophenyl)-6-phenylpyridine-3-carbonitrile], the figure is 48000 nM.
On to `COc1ccc(-c2cc(-c3ncccc3C)nc(OC)c2C#N)cc1` [2-Methoxy-4-(4-methoxyphenyl)-6-(3-methylpyridin-2-yl)pyridine-3-carbonitrile], for which the IC50 (Table 3, read-out: IC50) was 670 nM.
With `COc1nc(-c2ccccc2)cc(-c2cccc(N)c2)c1C#N` [4-(3-Aminophenyl)-2-methoxy-6-phenylpyridine-3-carbonitrile], the IC50 (Table 3, read-out: IC50) came to 1500 nM.
Still for that read-out and setting: as for `COc1nc(-c2ccccc2)cc(-c2cccc(O)c2)c1C#N` [4-(3-Hydroxyphenyl)-2-methoxy-6-phenylpyridine-3-carbonitrile], the figure is 1900 nM; as for `COc1nc(-c2ccccc2)cc(-c2ccc(N)cc2)c1C#N` [4-(4-Aminophenyl)-2-methoxy-6-phenylpyridine-3-carbonitrile], 92 nM; as for `COc1nc(-c2ccccc2[N+](=O)[O-])cc(-c2ccc(F)cc2)c1C#N` [4-(4-Fluorophenyl)-2-methoxy-6-(2-nitrophenyl)pyridine-3-carbonitrile], 7 nM.
Still for that read-out and setting: the value for `COc1nc(-c2ccc(O)cc2)cc(-c2ccc(F)cc2)c1C#N` [4-(4-Fluorophenyl)-6-(4-hydroxyphenyl)-2-methoxypyridine-3-carbonitrile] was 1000 nM; that for `COc1nc(-c2ccccc2)cc(-c2ccc(O)cc2)c1C#N` [4-(4-Hydroxyphenyl)-2-methoxy-6-phenylpyridine-3-carbonitrile] was 480 nM; that for `Cc1cccnc1-c1cc(-c2ccc(F)cc2)c(C#N)c(=O)n1CCN1CCOCC1` [4-(4-fluorophenyl)-1,2-dihydro-6-(3-methylpyridin-2-yl)-1-(2-morpholinoethyl)-2-oxopyridine-3-carbonitrile] was 14000 nM.
Same read-out and setting: as for `Cc1cccnc1-c1cc(-c2ccc(F)cc2)c(C#N)c(=O)n1Cc1cccnc1` [4-(4-fluorophenyl)-1,2-dihydro-6-(3-methylpyridin-2-yl)-2-oxo-1-((pyridin-3-yl)methyl)pyridine-3-carbonitrile], the figure is 10000 nM; as for `COc1nc(-c2cccc(O)c2)cc(-c2ccc(F)cc2)c1C#N` [4-(4-fluorophenyl)-6-(3-hydroxyphenyl)-2-methoxypyridine-3-carbonitrile], 230 nM.
Take `COc1nc(-c2ccccn2)cc(-c2ccco2)c1C#N` [4-(Furan-2-yl)-2-methoxy-6-(pyridin-2-yl)pyridine-3-carbonitrile]: where the note is “Table 3, read-out: IC50”, the half-inhibitory concentration (IC50) amounted to 680 nM.
In the case of `CCOc1nc(-c2ccccc2)nc(-c2ccccc2)c1C#N` [4-Ethoxy-2,6-diphenylpyrimidine-5-carbonitrile], the IC50 (Table 3, read-out: IC50) was 120 nM.
As for `COc1nc(-c2ccccc2N)cc(-c2ccc(F)cc2)c1C#N` [6-(2-Aminophenyl)-4-(4-fluorophenyl)-2-methoxypyridine-3-carbonitrile], the IC50 (Table 3, read-out: IC50) was found to be 230 nM.
`CCOc1nc2c(c(-c3ccc(F)cc3)c1C#N)Cc1ccccc1-2` [Compound 1, 2-ethoxy-4-(4-fluorophenyl)-5H-indeno[1,2-b]pyridine-3-carbonitrile]: the IC50 (read-out: IC50 against SQOR) was found to be 9.4 nM.
For `O=[N+]([O-])c1cc(Cl)c(-n2cccc2)cc1N1CCCCC1` [Compound 2, 1-(4-chloro-2-nitro-5-(1H-pyrrol-1-yl)phenyl)piperidine], the IC50 under setting [1] stood at 25 nM.
For `Cc1ccc(Sc2cc(N3CCOCC3)c(C)cc2[N+](=O)[O-])cc1` [Compound 3, 4-(2-methyl-4-nitro-5-(p-tolylthio)phenyl)morpholine], the IC50 (Table 2, SAR of Set C, read-out: IC50) worked out at 8 nM.
On to `COc1nc2c(c(-c3ccccc3)c1C#N)Cc1ccccc1-2` [Compound 4, 2-methoxy-4-phenyl-5H-indeno[1,2-b]pyridine-3-carbonitrile], for which the IC50 under setting [1] was 21 nM.
Still for that read-out and setting: as for `CCOc1nc2c(c(-c3ccc(OC)cc3)c1C#N)Cc1ccccc1-2` [Compound 5, 2-ethoxy-4-(4-methoxyphenyl)-5H-indeno[1,2-b]pyridine-3-carbonitrile], the figure is 260 nM; as for `COc1nc2c(c(-c3ccccc3Cl)c1C#N)Cc1ccccc1-2` [Compound 6, 4-(2-chlorophenyl)-2-methoxy-5H-indeno[1,2-b]pyridine-3-carbonitrile], 340 nM.
In the case of `COc1nc2c(c(-c3ccc(SC)cc3)c1C#N)Cc1ccccc1-2` [Compound 7, 2-methoxy-4-(4-(methylthio)phenyl)-5H-indeno[1,2-b]pyridine-3-carbonitrile], under setting [1], the IC50 was 880 nM.
Still for that read-out and setting: the value for `COc1nc2c(c(-c3ccc(C(F)(F)F)cc3)c1C#N)Cc1ccccc1-2` [Compound 8, 2-methoxy-4-(4-(trifluoromethyl)phenyl)-5H-indeno[1,2-b]pyridine-3-carbonitrile] was 1100 nM.
`COc1nc2c(c(-c3cc(Cl)ccc3F)c1C#N)Cc1ccccc1-2` [Compound 9, 4-(5-chloro-2-fluorophenyl)-2-methoxy-5H-indeno[1,2-b]pyridine-3-carbonitrile]: under setting [1], the IC50 is 3500 nM.
The same measure, in the same setting: the value for `COc1cccc(-c2c(C#N)c(OC)nc3c2Cc2ccccc2-3)c1` [Compound 10, 2-methoxy-4-(3-methoxyphenyl)-5H-indeno[1,2-b]pyridine-3-carbonitrile] was 6100 nM; that for `CCOC(=O)COc1nc(-c2ccccc2)cc(-c2ccccc2)c1C#N` [Compound 11, ethyl 2-((3-cyano-4,6-diphenylpyridin-2-yl)oxy)acetate] was 30 nM.
Take `CCOc1nc(-c2ccccc2)cc(-c2ccc3c(c2)OCO3)c1C#N` [Compound 12, 4-(benzo[d][1,3]dioxol-5-yl)-2-ethoxy-6-phenylnicotinonitrile]: the IC50 under setting [1] came to 890 nM.
For `CCOc1nc(-c2ccccc2)cc(-c2ccccc2)c1C#N` [Compound 13, 2-ethoxy-4,6-diphenylnicotinonitrile], the concentration for half-maximal inhibition (IC50) under setting [1] was 19 nM.
Regarding `N#Cc1c(-c2ccccc2)cc(-c2ccc(F)cc2)nc1N` [Compound 14, 2-amino-6-(4-fluorophenyl)-4-phenylnicotinonitrile], under setting [1], the IC50 was determined as 600 nM.
The same measure, in the same setting: the value for `Cc1ccc(C)c(-c2cc(-c3ccc4c(c3)OCO4)c(C#N)c(N)n2)c1` [Compound 15, 2-amino-4-(benzo[d][1,3]dioxol-5-yl)-6-(2,5-dimethylphenyl)nicotinonitrile] was 1100 nM; that for `Cc1ccc(-c2cc(-c3ccccc3)c(C#N)c(N)n2)cc1` [Compound 16, 2-amino-4-phenyl-6-(p-tolyl)nicotinonitrile] was 11000 nM.
Regarding `N#Cc1c(-c2ccccc2)cc(-c2ccc(O)cc2)nc1N` [Compound 17, 2-amino-6-(4-hydroxyphenyl)-4-phenylnicotinonitrile], under setting [1], the concentration for half-maximal inhibition (IC50) was determined as 12000 nM.
For the compound `Cc1ccc(-c2cc(-c3ccc4c(c3)OCO4)c(C#N)c(N)n2)cc1C` [Compound 18, 2-amino-4-(benzo[d][1,3]dioxol-5-yl)-6-(3,4-dimethylphenyl)nicotinonitrile], the IC50 under setting [1] was found to be 14000 nM.
The same measure, in the same setting: the value for `O=[N+]([O-])c1cc(Cl)c(-n2cccc2)cc1N1CCOCC1` [Compound 19, 4-(4-chloro-2-nitro-5-(1H-pyrrol-1-yl)phenyl)morpholine] was 440 nM.
